How the values were obtained:
[1] = biological target: Signal transducer and activator of transcription 3 (Homo sapiens, UniProt P40763); test: Inhibition of IFNgamma-induced STAT3 activation in human HeLa cells expressing p4xM67-tk-Luc treated 30 mins before […] challenge measured after 6 hrs; type: cell-based
[2] = Inhibition of TNFalpha-induced NF-kappaB activation in human HIV-1-LTR-luc 5.1 cells treated 30 mins before TNFalpha challenge measured after 6 hrs

Chain of Signal transducer and activator of transcription 3 (P40763 whole entry): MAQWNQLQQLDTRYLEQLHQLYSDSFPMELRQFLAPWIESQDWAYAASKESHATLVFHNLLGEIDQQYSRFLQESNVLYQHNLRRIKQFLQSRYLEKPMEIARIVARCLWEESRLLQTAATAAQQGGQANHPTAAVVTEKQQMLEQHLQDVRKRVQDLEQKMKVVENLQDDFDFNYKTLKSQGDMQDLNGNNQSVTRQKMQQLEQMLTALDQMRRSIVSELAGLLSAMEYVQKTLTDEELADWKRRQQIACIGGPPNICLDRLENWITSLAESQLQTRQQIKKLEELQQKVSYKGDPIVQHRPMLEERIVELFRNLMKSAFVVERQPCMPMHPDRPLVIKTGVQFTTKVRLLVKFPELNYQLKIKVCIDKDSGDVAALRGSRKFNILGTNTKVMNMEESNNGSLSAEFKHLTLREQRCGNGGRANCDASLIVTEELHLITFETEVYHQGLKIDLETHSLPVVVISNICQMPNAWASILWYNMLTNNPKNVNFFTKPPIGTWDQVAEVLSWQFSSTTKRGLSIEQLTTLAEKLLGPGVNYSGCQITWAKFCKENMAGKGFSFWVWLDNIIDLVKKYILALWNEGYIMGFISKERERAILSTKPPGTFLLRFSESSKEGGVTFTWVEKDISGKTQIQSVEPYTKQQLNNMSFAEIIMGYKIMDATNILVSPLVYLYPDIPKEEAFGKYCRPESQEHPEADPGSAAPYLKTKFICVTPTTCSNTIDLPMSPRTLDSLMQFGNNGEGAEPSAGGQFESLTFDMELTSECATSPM

IC50 [1] [µM] | IC50 [2] [µM] | Compound
110 | 60 | CC(C)=CCC[C@](C)(O[C@@H]1O[C@H](C)[C@H](O)[C@H](OC(=O)C=C(C)C)[C@H]1O)[C@@H]1CC=C(C)CC1 (relative stereo)
6.3 | 110 | CC(C)=CCC[C@](C)(O[C@@H]1O[C@H](C)[C@H](O)[C@H](O)[C@H]1O)[C@@H]1CC=C(C)CC1 (relative stereo)
73 | > 220 | CC(C)=CCC[C@](C)(O)[C@@H]1CC=C(C)CC1 (relative stereo) [LEVOMENOL]

Reference: ChEMBL document CHEMBL2021891, “STAT-3 inhibitory bisabolanes from Carthamus glaucus” (J Nat Prod, 2012)
